According to publication PMC4764201, “High Throughput Screen for Escherichia coli Twin Arginine Translocation (Tat) Inhibitors” (PLoS ONE, 2016):
Entries after “also recorded” stand apart in the source; their conditions may differ.

Tests used:
[1] = biological target: E. coli Tat machinery (IMVs containing overproduced TatABC) (Escherichia coli, UniProt P69423+P69425+P69428); assay: In vitro Tat transport assay of pre-SufI into IMVs, NADH as energy source; format: biochemical; conditions: for effect on in vitro E. coli Tat transport: 90 nM pre-SufI, NADH, with and without 2.5 mM DTT; for IC50: efficiency of NADH-dependent in vitro Tat transport of pre-SufI, IMVs A280 = 5; for outcome of NADH-dependent in vitro Tat transport screen (survival = visible inhibition of Tat transport): hit compound 20 μM, NADH 4 mM, 37°C 30 min
Sequence of E. coli Tat machinery (IMVs containing overproduced TatABC) (P69423 2-258): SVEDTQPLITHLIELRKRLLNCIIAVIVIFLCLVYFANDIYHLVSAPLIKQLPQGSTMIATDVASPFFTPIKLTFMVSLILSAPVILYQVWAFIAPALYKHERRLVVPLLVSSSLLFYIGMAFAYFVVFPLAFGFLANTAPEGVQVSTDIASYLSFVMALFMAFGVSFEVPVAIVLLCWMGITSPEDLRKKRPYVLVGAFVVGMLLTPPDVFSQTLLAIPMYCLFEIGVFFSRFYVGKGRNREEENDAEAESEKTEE
Sequence of E. coli Tat machinery (IMVs containing overproduced TatABC) (P69425 whole entry): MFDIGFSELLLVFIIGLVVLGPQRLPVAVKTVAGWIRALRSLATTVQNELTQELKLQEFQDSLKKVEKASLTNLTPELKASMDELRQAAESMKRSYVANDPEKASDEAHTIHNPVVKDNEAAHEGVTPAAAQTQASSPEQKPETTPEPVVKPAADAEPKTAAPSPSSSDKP
Sequence of E. coli Tat machinery (IMVs containing overproduced TatABC) (P69428 whole entry): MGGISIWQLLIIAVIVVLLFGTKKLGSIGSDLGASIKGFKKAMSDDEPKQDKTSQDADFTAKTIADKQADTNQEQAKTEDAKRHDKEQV
Protocol: To directly test for inhibition of Tat transport, a gel-based in vitro Tat transport assay was performed using pre-SufI, an authentic Tat precursor protein [7]. In short, this assay consists of incubating a Tat substrate and a Δψ-generating energy source with inverted membrane vesicles (IMVs) containing overproduced TatABC, digesting remaining external protein with a protease, and then analyzing via SDS-PAGE. This assay was run twice using NADH and ATP (if warranted) as energy sources to generate the necessary Δψ. NADH generates a Δψ using respiratory proteins (i.e., the NADH dehydrogenase and cytochrome bo3 ubiquinol oxidase complexes) and ATP generates a Δψ by reversal of ATP synthase. A true Tat inhibitor would survive both assays. In contrast, a respiration inhibitor is expected to reduce Tat transport when only one of the two energy sources is used (except for an ionophore).
Fig 8 Effect of Hits from the Local HTS on In Vitro Tat Transport. (A) Tat transport assays of pre-SufI using NADH to generate a Δψ. Inverted membrane vesicles (IMVs; A280 = 5.0), the fluorescent substrate pre-SufI-IAC^Atto565 (90 nM), and NADH (4 mM) were incubated at 37°C for 30 min with DMSO (control) or with hit compound (20 μM). Samples were treated with the protease proteinase K, run on SDS-PAGE, and analyzed by in-gel fluorescence imaging. Assays were run in duplicate. Band intensity corresponds to the amount of protein transported into the IMV lumen. The following 7 compounds survived this screen: 1^JS, 51^JS, 55^JS, 111^JS, 181^JS, 202^JS, and 140^JS (boxed in red). (B) Tat transport assays of pre-SufI using ATP to generate a Δψ. All 7 compounds surviving the screen in (A) were tested using a Tat transport assay performed identically to those in (A) except that ATP (1 mM) was used in place of NADH. Compound 55^JS was eliminated by this assay—the other 6 compounds survived (boxed in red). (C) Chemical structure of compound 55^JS, N-(4,7-Dioxo-4,7-dihydro-2,1,3-benzoxadiazol-5-yl)acetamide.
(§1) Isolation of inverted membrane vesicles (IMVs), Western blot analyses and purification of pre-SufI-IAC were performed as described previously. Western blots were performed using rabbit anti-mCherry antibodies (1:10,000 dilution) in the presence of 0.1% Triton X-100 and 0.1% Tween 20. The pre-SufI-IAC protein was labeled with Atto565 maleimide, and the resultant fluorescent protein, pre-SufI-IAC^Atto565, was used as a substrate for the in vitro Tat transport assays (A280 = 5.0), as described previously. The presence of a Δψ was determined by measuring oxonol VI fluorescence in presence of Tat^+ IMVs (A280 = 0.5), as described previously, except that the translocation buffer lacked BSA. Steady-state fluorescence spectra and fluorescence intensities of whole cells producing mCherry proteins were determined with an SLM-8100 spectrofluorometer.
(§2) Supplementary file pone.0149659.s003.tiff: S3 Fig IC50's for Hit Compound 181^JS. (A) The total cellular mCherry fluorescence (live cell assay; n = 1), (B) the in vitro NADH-dependent Tat transport efficiency of pre-SufI (n = 1), and (C) the maximum transmembrane electrical potential gradient (n = 1) were measured for a range of concentrations of compound 181^JS (S2E Fig). (D) SDS-PAGE gel showing in-gel fluorescence data used in (B). For (A), cells expressing spTorA-mCherry-SsrA were grown under Tat^++ conditions in a 384-well plate in the presence of 0, 0.08, 0.15, 0.3, 0.63, 1.25, 2.5, 5, 10, 20, or 40 μM compound 181^JS, as described for the HTS assay (see Methods). For (B) and (C), IMVs were incubated with the same concentrations of compound 181^JS prior to initiation of Tat transport and Δψ generation by the addition of NADH, as described previously. The red curves are best-fits using y = d + (100-d)/(1+(x/IC50)^b), where b is a slope factor and d is the high concentration asymptote. (TIFF) Click here for additional data file.

[2] = system: electrical field gradient (Δψ) across IMVs; assay: Δψ assay (oxonol VI fluorescence with IMVs); format: biochemical, Escherichia coli; conditions: for IC50: electrical field gradient, IMVs A280 = 0.5, NADH
Protocol: Hit compounds surviving the in vitro Tat transport assay screens could be general Δψ inhibitors (ionophores), as both NADH and ATP generate the Δψ necessary for Tat transport. Since our current assay to measure Δψ requires ~20 times more test compound than the Tat transport assays, we reserved this assay for last. The presence of a Δψ was determined by measuring oxonol VI fluorescence. For all 8 hit compounds that survived initial secondary screening, we tested their dose dependent effect on the Δψ, on NADH-dependent in vitro Tat transport efficiency, and on the fluorescence signal recovered from our primary HTS assay (live cell assay). […] Out of 22 independent assays by three different people, compound 18^NIH inhibited Tat transport 12 times. The conflicting results seem more likely to arise from differences in IMV preparations rather than decomposition of or impurities in the samples of compound 18^NIH.
as §1, §2

SMILES	effect on in vitro E. coli Tat transport [1]	IC50 [1] [µM]	outcome of NADH-dependent in vitro Tat transport screen (survival = visible inhibition of Tat transport) [1]	IC50 [2] [nM]	effect on the Δψ across IMVs [2]
Cc1ccc(S(=O)(=O)/C=C/C#N)cc1 [Bay 11–7082]	neither compound affected; also recorded: do not inhibit	–	–	–	–
Fc1nc(F)c(F)c(NNC(=S)Nc2cccc(C(F)(F)F)c2)c1F [Compound 111, 1-[(2,3,5,6-tetrafluoropyridin-4-yl)amino]-3-[(3-trifluoromethyl)phenyl]thiourea]	–	0.7	survived	100	–
N#CC(C#N)=NNc1ccccc1Br [Compound 1, [(2-bromophenyl)hydrazono]malononitrile]	–	–	survived	1000	–
O=[N+]([O-])c1ccc(O)c(-c2cccs2)c1 [Compound 202, 4-nitro-2-thiophen-2-ylphenol]	–	–	survived	3000	–
Oc1cc(Cl)ccc1Oc1ccc(Cl)cc1Cl [Compound 18^NIH, 5-Chloro-2-(2,4-dichlorophenoxy)phenol]	–	–	–	> 100000	did not collapse the Δψ
N#CC1c2ccccc2-n2nncc2CN1Cc1cc(Cl)cc(Cl)c1 (stereo not shown) [21^NIH, 5-[(3,5-dichlorophenyl)methyl]-4,6-dihydrotriazolo[1,5-a][1, 4]benzodiazepine-6-carbonitrile]	–	50	–	4000	–
FC(F)(F)c1cccc(-c2cccc3cnccc23)c1 [Compound 140, 5-[3-(trifluoromethyl)phenyl]isoquinoline]	–	–	survived	1000	–
O=C1C=CC(=O)N1c1ccccc1 [N-phenylmaleimide]	neither compound affected; also recorded: do not inhibit	–	–	–	–
O=[N+]([O-])c1cc([N+](=O)[O-])c2ccccc2c1Cl [Compound 51, 1-chloro-2,4-dinitronaphthalene]	–	–	survived	8000	–
O=C(Nc1cccc(C(F)(F)F)c1)Nc1ncc([N+](=O)[O-])s1 [Compound 181^JS, 1-(5-nitro-1,3-thiazol-2-yl)-3-[3-(trifluoromethyl)phenyl]urea]	–	–	survived	400	–
